We go through 17 molecules from publication PMC10747975, “Synthesis, Antimalarial, Antileishmanial, and Cytotoxicity Activities and Preliminary In Silico ADMET Studies of 2-(7-Chloroquinolin-4-ylamino)ethyl Benzoate Derivatives” (Pharmaceuticals, 2023).

In series [1] the test system is β-hematin formation. Put plainly: Inhibition of β-hematin formation. The format is biochemical. The note with it: n = 3, read-out: IC50: Half maximal inhibitory concentration (βHF). Here is the method:
The β-hematin (β-H) formation assay was performed as described previously. In 96-well microplates, hemin chloride solution (50 μL, 4 mM) was dissolved in dimethyl sulfoxide (DMSO) (5 mg mL^−1). We dissolved the compounds in DMSO and added different concentrations (100–5 mM) to the test wells (50 μL). As controls, 50 μL of water and 50 μL of DMSO were used. Experiments were conducted in triplicate. In order to generate β-H, acetate buffer (100 μL, 0.2 M, pH 4.4) was used. After 48 h at 37 °C, the plates were centrifuged (4000 RPM for 15 min, IEC-CENTRA, MP4R) (International Equipment Company, MA, USA). After discarding the supernatants, the pellet was washed twice with DMSO (200 μL) and dissolved in NaOH (200 μL, 0.2 N). […] The outcomes are expressed as percentages of inhibition of β-H formation.

Series [2] relates to Leishmania mexicana promastigotes. Put plainly: L. mexicana promastigote growth inhibition. Conditions: growth/viability, Bel 21 strain. The format is cell-based. Here is the method:
The growth of L. mexicana was carried out as previously reported. L. mexicana (Bel 21 strain) promastigotes were cultured in liver infusion-tryptose (LIT) medium supplemented with 10% foetal bovine serum using continuous agitation at 29 °C, as reported previously. A growth curve was performed to evaluate the susceptibility of parasites to the different compounds at different concentrations. Parasites were counted daily using a Neubauer chamber. […] The final concentration of sterile DMSO in the parasite culture was 0.1%, not affecting the viability. […] FCCP (2 µM) was used as a positive control.

Series [3] deals with mitochondrial electrochemical membrane potential of Leishmania mexicana promastigotes. Put plainly: Mitochondrial membrane potential of L. mexicana (rhodamine 123). In kind it is cell-based. The note with it: compounds 10 μM; b32 compares 4b, 4e with 4c. The protocol: The effect of different compounds on the mitochondrial membrane potential of L. mexicana promastigotes was evaluated using rhodamine 123, a fluorescent dye distributed inside mitochondria according to the electrochemical membrane potential, as reported previously. Briefly, 10^8 parasites were obtained by centrifugation at 600× g for 2 min and washed in phosphate-buffered saline solution (PBS) plus 1% glucose. The pellet was resuspended in the same buffer but in the presence of 20 µM rhodamine 123 for 45 min at 29 °C in the dark with mild agitation. Then, parasites were washed twice, resuspended in the same buffer, and transferred into a stirred cuvette. Measurements (excitation wavelength [λex], 488 nm; emission wavelength [λem], 530 nm) were made in a Hitachi 7000 spectrofluorometer at 29 °C (Hitachi High-Tech Corporation, Tokyo, Japan). FCCP (2 µM) was used as a positive control.

The subject of series [4] is acidocalcisomes of Leishmania mexicana. Description: Acidocalcisome function (acridine orange accumulation). The note with it: results not shown. In kind it is cell-based. From the text: Considering this issue, we investigate another possible action of these compounds in these parasites. The acidocalcisomes are another relevant organelle characteristic of these trypanosomatids directly involved in bioenergetics and intracellular Ca^2+ regulation. These are acidic vacuoles rich in calcium and phosphates, engaged in the production and storage of pyrophosphates, and alternative energetic currency in addition to ATP, well known in trypanosomatids. For this reason, we also tested the possible effect of the compounds 4b, 4c, and 4e on acidocalcisomes, using acridine orange accumulation as a well-recognized method. This compound is released to the medium after parasite alkalization, denoting the loss of this organelle function. […] In this context, it is interesting to mention that in trypanosomatids, the disruption of intracellular Ca^2+ homeostasis drives parasite death, thus proposing that alteration of this function could be a rational therapeutic target.

Series [5] has as its system Plasmodium berghei ANKA. Description: Four-day suppressive test in P. berghei-infected mice. The format is in vivo. The note with it: for Survival: number of mice that survived until Day 30 post-infection/total number of mice in the group / %P: percent parasitaemia (± SEM): 25 mg/kg ip; for Sd: survival days (± SEM): P. berghei-infected BALB/c mice, 25 mg/kg ip once daily for four days; for Sd: survival days (± SEM) / %P: percent parasitaemia (± SEM): n = 6; for %P: percent parasitaemia (± SEM): fourth day post-infection. Here is the method: The compounds 4c and 4e were evaluated in mice infected with P. berghei ANKA, a strain of murine malaria susceptible to CQ(DPh). The compounds 4c and 4e were assessed on the fourth day post-infection by evaluating their ability to increase mouse survival and reduce parasitaemia in vivo compared to untreated controls. The compounds 4c, 4e (25 mg/kg), or CQ (25 mg/kg) were administered intraperitoneally (ip) once daily in mice following previously reported protocols. The Institute of Immunology Bioethical Committee approved the study (AS 161019). We followed the guidelines for Laboratory Animal Research of the National Research Council (ILAR).
For the experiments, male BALB/c mice, 18–22 g, were fed a commercial pellet diet under controlled conditions approved by the Institute of Immunology’s Ethics Committee. The animals were infected with the rodent malaria ANKA strain of Plasmodium berghei; 1 × 10^6 infected erythrocytes diluted in phosphate-buffered saline (PBS; 10 mM, pH 7.4, 0.1 mL) were injected […] into mice. Microscopic examination of Giemsa-stained smears was used to monitor parasitaemia.
Plasmodium berghei-infected red blood cells were injected into the caudal vein of BALB/c mice (18–23 g) (n = 6). Within two hours of infection, the active compounds from the in vitro test began to be administered (inhibition of β-H formation). Following dissolution in DMSO (0.1 M), the compounds were diluted with 2% saline-Tween 20 solution. The compounds (dose 25 mg kg^−1) were administered ip for four days. Giemsa-stained smears were examined on the fourth day to determine the parasite load. As a positive control, CQ (25 mg kg^−1) in DMSO (0.1 M) diluted with 2% saline-Tween 20 solution was used. A control group of mice infected with P. berghei incubated with saline solution was used to determine survival times. The results are expressed as a percentage of parasitaemia, and the survival curve was constructed based on the number of days of survival after treatment with the compound over that of mice infected without treatment.

Series [6] is described as follows: In vitro toxicity on mouse red blood cells (haemolysis). In kind it is cell-based. The note with it: mouse RBCs, 37 °C. The protocol: To evaluate the in vitro toxicological effects of the compounds, we measured the haemoglobin released into the supernatant fraction of lysed red blood cells (RBCs). […] To obtain 100% RBCs, mouse blood was spun down at 800 g for 10 min and washed thrice with saline solution. […] RBCs were lysed in 1% saponin solution and were used as a positive control and a PBS solution as a negative control. The percentage of haemolysis was calculated using the formula: % Haemolysis = [(AT − AN)/(AP − AN)] × 100, where AT = mean absorbance of the test compound; AN = mean absorbance of the negative control; AP = mean absorbance of the positive control.

Series [7] relates to Leishmania mexicana promastigotes. The arrangement: method as in PMID 27458218. Conditions: reference compound; cited from earlier work.
Setting [8] is: 2% suspension of mouse red blood cells.

SMILES strings stand for the structures. “And” between values parts separate entries of the source, which are not always exact repeats. Equal entries are not always repeated. “Also recorded” adds a separate entry of the source. Where two headings read alike, the source gives them in different places. A value given as a limit tells only on which side of the number the result lay.

For the molecule `COc1ccccc1C(=O)OCCNc1ccnc2cc(Cl)ccc12` [4a, 2-(7-Chloroquinolin-4-ylamino)ethyl-2-methoxybenzoate], the IC50 in series [1] turned out to be 4.16 ± 0.61 µM.

In the case of `COc1ccc(C(=O)OCCNc2ccnc3cc(Cl)ccc23)cc1` [4b, 2-(7-Chloroquinolin-4-ylamino)ethyl-4-methoxybenzoate], the results for the IC50 in series [1], in series [2] (Leishmania mexicana) and in series [2] were 3.09 ± 0.27 µM, less than 10 µM and 8.09 ± 1.47 µM, respectively. Besides, the “Effect on mitochondrial electrochemical membrane potential (rhodamine 123 fluorescence release)” value (from here on “Effect … (rhodamine 123 fluorescence release)”) in series [3] was “rapid increase in the fluorescence; also recorded: significantly higher”. The “Effect on acidocalcisome functionality” value in series [4] is given as “none of these compounds showed any effect”.

Turning to `COc1cccc(C(=O)OCCNc2ccnc3cc(Cl)ccc23)c1OC` [4c, 2-(7-Chloroquinolin-4-ylamino)ethyl-2,3-dimethoxybenzoate], the results for the IC50 in series [1], in series [2] (Leishmania mexicana) and in series [2] were 2.1 ± 0.48 µM, less than 10 µM and 8.46 ± 1.86 µM, respectively. Also, the “Survival: number of mice that survived until Day 30 post-infection/total number of mice in the group” value in series [5] is reported as 0/6. Moreover, in series [5] (25 mg/kg), the “Sd: survival days (± SEM)” value is 16.7 ± 2.16 days and 16.71 ± 2.16 days. Also, in series [5], the “%P: percent parasitaemia (± SEM)” value is reported as 9.86 ± 1.55 %. The molecule also displayed a hemolysis at 45 min, 1 mM in series [6] (setting [8]) of 4.73 ± 0.12%. Also, in series [3], the “Effect … (rhodamine 123 fluorescence release)” value is “rapid increase in the fluorescence; also recorded: lower”. The “Effect on acidocalcisome functionality” value in series [4] is recorded as “none of these compounds showed any effect”.

On to `COc1ccc(C(=O)OCCNc2ccnc3cc(Cl)ccc23)c(OC)c1` [4d, 2-(7-Chloroquinolin-4-ylamino)ethyl-2,4-dimethoxybenzoate], for which the IC50 in series [1] was found to be 8.59 ± 0.01 µM.

In the case of `COc1ccc(OC)c(C(=O)OCCNc2ccnc3cc(Cl)ccc23)c1` [4e, 2-(7-Chloroquinolin-4-ylamino)ethyl-2,5-dimethoxybenzoate], the IC50 was 1.81 ± 0.83 µM in series [1], less than 10 µM in series [2] (Leishmania mexicana) and 5.67 ± 2.15 µM in series [2]. Also, the “Survival: number of mice that survived until Day 30 post-infection/total number of mice in the group” value in series [5] is recorded as 0/6. For the same molecule, the “Sd: survival days (± SEM)” value in series [5] (25 mg/kg) is 14.4 ± 1.20 days and 14.43 ± 1.20 days. In addition, in series [5], the “%P: percent parasitaemia (± SEM)” value was 12.05 ± 2.36 %. In series [6] (setting [8]), this molecule registered a hemolysis at 45 min, 1 mM of 4.17 ± 0.21%. Also, the “Effect … (rhodamine 123 fluorescence release)” value in series [3] was “rapid increase in the fluorescence; also recorded: significantly higher”. Moreover, the “Effect on acidocalcisome functionality” value in series [4] is listed as “none of these compounds showed any effect”.

For the molecule `COc1cc(OC)c(C(=O)OCCNc2ccnc3cc(Cl)ccc23)cc1OC` [4f, 2-(7-Chloroquinolin-4-ylamino)ethyl-2,4,5-trimethoxybenzoate], the IC50 in series [1] was 3.29 ± 0.23 µM.

`COc1cc(C(=O)OCCNc2ccnc3cc(Cl)ccc23)cc(OC)c1OC` [4g, 2-(7-Chloroquinolin-4-ylamino)ethyl-3,4,5-trimethoxybenzoate]: the IC50 in series [1] came out at 2.98 ± 0.17 µM.

Consider `O=C(OCCNc1ccnc2cc(Cl)ccc12)c1cccc(Cl)c1` [4h, 2-(7-Chloroquinolin-4-ylamino)ethyl-3-chlorobenzoate], for which the IC50 in series [1] worked out at 6.85 ± 0.94 µM.

On to `O=C(OCCNc1ccnc2cc(Cl)ccc12)c1ccccc1F` [4i, 2-(7-Chloroquinolin-4-ylamino)ethyl-2-fluorobenzoate], for which the IC50 in series [1] worked out at 4.01 ± 0.09 µM.

As to `Cc1cc(C)cc(C(=O)OCCNc2ccnc3cc(Cl)ccc23)c1` [4j, 2-(7-Chloroquinolin-4-ylamino)ethyl-3,5-dimethylbenzoate], in series [1], the IC50 was found to be 3.16 ± 0.38 µM.

`Cc1ccc([N+](=O)[O-])c(C(=O)OCCNc2ccnc3cc(Cl)ccc23)c1` [4k, 2-(7-Chloroquinolin-4-ylamino)ethyl-5-methyl-2-nitrobenzoate]: the IC50 in series [1] was 4.27 ± 0.67 µM.

For `CC(C)(C)c1ccc(C(=O)OCCNc2ccnc3cc(Cl)ccc23)cc1` [4l, 2-(7-Chloroquinolin-4-ylamino)ethyl-4-tert-butylbenzoate], in series [1], the IC50 stood at 3.57 ± 0.22 µM.

Turning to `O=C(OCCNc1ccnc2cc(Cl)ccc12)c1ccc(C(F)(F)F)cc1` [4m, 2-(7-Chloroquinolin-4-ylamino)ethyl-4-(trifluoromethyl)benzoate], the IC50 in series [1] stood at 3.24 ± 0.15 µM.

With `CCN(CC)CCCC(C)Nc1ccnc2cc(Cl)ccc12` (stereo not drawn) [CQ(DPh), chloroquine bisphosphate, reference compound], in series [5], the “Sd: survival days (± SEM)” value amounted to 30 days and the “%P: percent parasitaemia (± SEM)” value is 0.28 ± 0.15%.

As for `CCN(CC)CCCC(C)Nc1ccnc2cc(Cl)ccc12` (stereo not drawn) [CQ, chloroquine, reference compound], in series [5], the “Survival: number of mice that survived until Day 30 post-infection/total number of mice in the group” value is 6/6. In series [6], the hemolysis at 45 min, 1 mM stood at 2.07 ± 0.17%.

`CC(C)=CCC/C(C)=C/CNCCNC1C2CC3CC(C2)CC1C3` (stereo not drawn) [SQ109]: the IC50 in series [7] was 0.53 ± 0.06 µM.

For the molecule `OCCNc1ccnc2cc(Cl)ccc12` [compound 2, 2-(7-Chloroquinolin-4-ylamino)ethanol], in series [1], the IC50 came out at 5.06 ± 0.31 µM.
